Ends that are not written are not given here. * marks the point of attachment. Biotin = O=C1N[C@H]2[C@H](CS[C@H]2CCCCC(=O)*)N1
Tests used:
[1] = tested on: polyclonal anti-BK antibodies; details: cited from earlier work; for cross-reactivity in the BK EIA as stated by the manufacturer: ref Phoenix Pharmaceuticals
Description: BK and related peptides are formed locally close to their site of action (autacoids). They are extremely unstable and prone to artefactual formation when blood or tissues are sampled (for instance, following contact of blood with glass). Therefore, measuring kinins in venous blood is not really informative, contrasting with many useful peptide hormone dosages applied in endocrinology. A further challenge in concentration determination is that the BK sequence is embedded in that of precursor kininogens, with necessary separation if an antibody-based detection system is considered. Blais e ... || Figure 2 Cross-reactivity of the BK EIA with selected kinin sequences. […] Reproduce ...

human B1 receptor = details: cited from earlier work
Description: The present paper reviews recent literature, contains some original results, and aims to illustrate the role of the analytical biochemistry of BK-related kinins in the understanding of angioedema (AE) mediated by kinins. The kallikrein –kinin system is made of many molecular participants present or secreted in blood plasma or present at the vascular endothelial surface (Figure 1). There are two different precursors of kinins, low and high molecular weight kininogens (LK, HK; abbreviations are defined in Table 1). Those proteins are encoded by alternative splicing of a single gene ...

[2] = tested on: polyclonal anti-BK antibodies; experiment: Cross-reactivity of the BK EIA (Phoenix Pharmaceuticals) with kinin sequences; assay type: binding; details: Figure 2 (reproduced in part from ref 12)
Description: BK and related peptides are formed locally close to their site of action (autacoids). They are extremely unstable and prone to artefactual formation when blood or tissues are sampled (for instance, following contact of blood with glass). Therefore, measuring kinins in venous blood is not really informative, contrasting with many useful peptide hormone dosages applied in endocrinology. A further challenge in concentration determination is that the BK sequence is embedded in that of precursor kininogens, with necessary separation if an antibody-based detection system is considered. Blais et al. have reviewed these pitfalls and discussed extraction procedures and recovery in the context of the currently applied immunoassays. Professor A. Adam and co-workers developed separate competitive chemiluminescence enzyme immunoassays (EIAs) for BK and des-Arg^9-BK based on digoxygenin-conjugated peptides. Now several commercially available kits are being used, such as that from Phoenix Pharmaceuticals for BK (96-well plate format), and these have the advantage of world-wide reproducibility. The sensitivity of EIAs is excellent. […]
(Figure 2). […] One way out is to couple the EIA quantification with chromatographic separation of kinins, such as HPLC [29]. […]

[3] = Degradation of BK by intact adherent HUVECs (Phoenix Pharmaceuticals BK EIA)
Method: Samples were incubated at 37 °C under agitation for the indicated time periods before extraction and EIA determination of BK. The number of replicated from different healthy donors is indicated by “n”. […] Reproduced from.
(§1) ACE activity in serum or blood plasma corresponds, in healthy individuals, to a form of the protein shed from the vascular endothelial cells in an apparently regulated manner. ACE, membrane arginine carboxypeptidase (carboxypeptidase M), aminopeptidase P and other potential kininases are expressed at the surface of vascular endothelial cells. Primary cultures of human umbilical vein endothelial cells (HUVECs) are a standard model for which significant information is available.

[4] = BK added ex vivo to plasma of healthy subjects who took two daily doses of enalapril maleate; cited from earlier work
[5] = cited from earlier work
Method: Samples were incubated at 37 °C under agitation for the indicated time periods before extraction and EIA determination of BK. The number of replicated from different healthy donors is indicated by “n”. […] Reproduced from. (B) Catabolism of BK ... || One stored plasma sample that was received in our laboratory was partly clotted and excluded from our previous studies. […] Secondly, the par ...

[6] = BK 10 ng/mL, adherent HUVECs at 37 °C without serum, radioimmunoassay; cited from earlier work
Description: as §1, with “available. These cells express at their surface a high number of ACE molecule, as judged from the saturable binding of [^3 ...” for “available.”

ACE = target: ACE; parameters: method as in 2 sources, one per row (each row's own in cited_ref): ref 35 = [35]; PMID 18201802; doi:10.1016/j.peptides.2007.12.004; 35. Morissette G. Couture J.P. Désormeaux A. Adam A. Marceau F. Lack of direct interaction between enalaprilat and the kinin B 1 receptors Peptides 2008 29 606 612 10.1016/j.peptides.2007.12.004 18201 ||| ref 36 = [36]; PMID 20452384; doi:10.1016/j.peptides.2010.04.027; 36. Koumbadinga G.A. Bawolak M.T. Marceau E. Adam A. Gera L. Marceau F. A ligand-based approach to investigate the expression and function of angiotensin converting enzyme in intact human umbilical ve; details: cited from earlier work
Description: Primary cultures of human umbilical vein endothelial cells (HUVECs) are a standard model for which significant information is available. These cells express at their surface a high number of ACE molecule, as judged from the saturable binding of [^3 ...

B1 receptor = details: cited from earlier work
Description: (§2) (Figure 2). Thus, the EIA signal may be contaminated with the inert metabolite generated by aminopeptidase P, a significant peptidase that inactivates BK [17]. One way out is to couple the EIA quantification with chromatographic separation of kinins, such as HPLC [29].

B2 receptor = details: cited from earlier work
Description: as §2

For “des-Arg^9-BK (RPPGFSPF; Bradykinin; UniProt P01042 381-388, looked up, fragment) [BK metabolite produced by arginine carboxypeptidases (kininase I)]”, the “cross-reactivity in the BK EIA as stated by the manufacturer” value (“cross-reactivity in the BK EIA as stated” below) [1] is given as “not” and the “affinity for the human form of the B1 receptor” value (human B1 receptor) is given as “very weak affinity”.
For D-Arg-BK-Arg-Arg, the “cross-reactivity in the BK EIA vs. BK” value [2] was “loses much affinity” and the “cross-reactivity in the BK EIA vs. BK” value ([2]; listed as Arg-BK-Arg-Arg) was “partial reactivity”.
In the case of RPPGFSPFR [BK, bradykinin], the “stability in wells without cells (nude plastic)” value [3] is given as “stable”, the half-life at 10 nM ([3]; human, pH 7.4) is given as 12.3 min and the “increase of BK t1/2 relative to the pre-treatment value” [4] is given as ~ 5 fold. For the same compound, the “time in which BK was completely cleared” value [5] was 5 min, the “half-life (first order decay)” value ([5]; human) was 7.1 min and the t1/2 ([5]; human) was 0.567 min. For the same compound, the half-life [6] was “about 50 min”.
In the case of C[C@H](N[C@@H](CCc1ccccc1)C(=O)O)C(=O)N1CCC[C@H]1C(=O)O [[^3H]enalaprilat, enalaprilat], the Kd (ACE; saturable binding to intact HUVECs) is listed as 0.23 nM.
In the case of lysyl-bradykinin [Lys-BK], the “cross-reactivity in the BK EIA as stated” value [1] is given as “fully cross-reacts” and the “displacement of [3H]enalaprilat binding” value (ACE; HUVECs) is given as “displaced”.
In the case of “BK1–7: BK fragment produced by ACE (RPPGFSP; Bradykinin; UniProt P01042 381-387, looked up, fragment)”, the “activity on B1 receptors” value (B1 receptor) is listed as “inactive” and the “activity on B2 receptors” value (B2 receptor) is listed as “inactive”.
For Lys-des-Arg^9-BK, the “cross-reactivity in the BK EIA” value ([1]; Phoenix Pharmaceuticals BK EIA) is given as “do not cross react at all” and the “affinity for the human form of the B1 receptor” value (human B1 receptor) is given as “subnanomolar affinity”.
For “biotinyl-BK (Biotin-RPPGFSPFR; UniProt P01042 381-389, looked up) [biotin-labelled BK tracer]”, the “cross-reactivity in the BK EIA as stated” value [1] is given as “fully cross-reacts”.
In the case of “BK1–5: BK fragment produced by two cycles of ACE activity, more stable than most kinins (RPPGF; Bradykinin; UniProt P01042 381-385, looked up, fragment)”, the “activity on B1 receptors” value (B1 receptor) is given as “inactive” and the “activity on B2 receptors” value (B2 receptor) is given as “inactive”.

From paper PMC7559923, “In Vitro Modeling of Bradykinin-Mediated Angioedema States” (Pharmaceuticals, 2020)
